In patent publication US8563500B2, “Methods and compounds for treating diseases caused by reactive oxygen species” (Deutsches Krebsforschungszentrum Stiftung des Offentlichen …, priority 2007, dated 2013):
Like-named read-outs stand apart in the source and are kept apart here.

Key:
CD95L [1] = assay: Activation-induced CD95L expression, semi-quantitative RT-PCR and quantitative PCR, Jurkat cells; format: cell-based, human; details: for reduction of CD95L induction, quantitative PCR: plate-bound anti-CD3 (TCR triggering)
Jurkat J16-145 cells [2] = assay: Activation-induced (PMA or anti-CD3) ROS generation, DCFDA oxidation by FACS; format: cell-based, human
CD95L [3] = assay: Anti-CD3 induced CD95L expression in primary human T cells (PCR); format: cell-based; details: day 6 T cells
[4] = test system: primary human T cells (day 6 T cells); assay: Anti-CD3 induced ROS generation (DCFDA) in primary human T cells; format: cell-based; details: preactivated primary human T cells (day 6); anti-CD3 30 min
Jurkat J16-145 cells [5] = assay: Cellular ATP determination; format: cell-based, human; details: high concentrations of inhibitors, 2 h
complex I [6] = details: isolated mitochondria; reference 6; cited from earlier work
Jurkat J16-145 cells [7] = assay: Activation-induced T cell death (AICD), specific cell death by FSC/SSC, Jurkat cells; format: cell-based, human; details: PMA/ionomycin or plate-bound anti-CD3, 24 h
Description: (§1) Assessment of cell death. […] Cell death was assessed by a drop in the forward-to-side-scatter (FSC/SSC) profile in comparison to living cells and recalculated to “specific cell death” as described (25).

IL-2, IL-4, or TNF-alpha = assay: Cytokine expression in activated T cells (RT-PCR); format: cell-based, human
CD95 receptor [8] = assay: Apoptosis induced by direct stimulation of the CD95 receptor, primary T cells; format: cell-based, human; details: data not shown
[9] = test system: primary human T cells (day 6 T cells); assay: AICD in primary human T cells, specific cell death; format: cell-based; details: plate-bound anti-CD3 24 h
Description: FIG. 9. Primary human T cells depend on complex I-originated activation-induced ROS for CD95L expression and AICD. […] Cells were stained with DCFDA and MFI was measured by FACS. […] Next, RNA was isolated, reverse-transcribed, and amplified using CD95L- and actin-specific primers. C, T cells were transfected with 900 nM of scrambled- (ctr) or two different NDUFAF1-siRNA oligonucleotides (#1, #2). After 48 h, RNA was isolated, reverse-transcribed, and amplified using NDUFAF1- and actin-specific primers. D, 72 h after transfection with 900 nM of scrambled- (ctr) or NDUFAF1-siRNA oligonucleotides (#1, #2) primary human T were stimulated by plate-bound anti-CD3 antibodies for 30 min and oxidative signal was determined as in (A). […] (ii) For 1 h (F), to detect changes in CD95L expression (left panel semi quantitative PCR; right panel quantitative PCR). (iii) For 24 h (G) to assessed AICD by a drop in FCS/SSC index. Insert show T cells cotreated with or without CD95L neutralizing antibody (results were recalculated to “specific cell death”). H, Schematic diagram of TCR induced oxidative signalling.
Isolation of human peripheral T cells. […]
as §1

complex I [10] = details: references 6, 18; cited from earlier work
CD95 receptor [11] = assay: Apoptosis induced via direct stimulation of the CD95 receptor, Jurkat cells; format: cell-based, human; details: data not shown
[12] = Jurkat J16-145, anti-CD3 or PMA/ionomycin, 1 h

Compound: C=C(C)[C@H]1Cc2c(ccc3c2O[C@@H]2COc4cc(OC)c(OC)cc4[C@@H]2C3=O)O1 [rotenone]
- effect on activation-induced CD95L expression (RT-PCR), in words (CD95L [1]; [12]): abolished CD95L transcription almost completely
- reduction of CD95L induction, quantitative PCR (CD95L [1]; Jurkat J16-145, 1 h): more than 80%
- effect on activation-induced (TCR- and PMA-induced) ROS generation, in words (Jurkat J16-145 cells [2]): able to inhibit
- effect on CD95L expression, in words (CD95L [3]; anti-CD3 1 h): exclusively inhibited
- effect on activation-induced (anti-CD3) oxidative signal, in words [4]: exclusively inhibited

Compound: CC[C@H]1/C=C/C=C/C[C@@H](C)[C@H](O)[C@@](C)(O)C(=O)[C@@H](C)[C@H](O)[C@@H](C)C(=O)[C@@H](C)[C@H](O)[C@@H](C)/C=C/C(=O)O[C@@H]2[C@H](C)[C@H](CC1)O[C@]1(CC[C@H](C)[C@H](C[C@@H](C)O)O1)[C@H]2C [oligomycin]
- reduction of CD95L induction, quantitative PCR (CD95L [1]; Jurkat J16-145, 1 h): no effect
- effect on activation-induced (TCR- and PMA-induced) ROS generation, in words (Jurkat J16-145 cells [2]; Jurkat J16-145, anti-CD3 or PMA, 30 min): no effect or increased the oxidative signal
- ATP depletion compared to rotenone and piericidin A (Jurkat J16-145 cells [5]): more efficient ATP depletion

Compound: C/C=C(\C)[C@H](O)[C@H](C)/C=C(C)/C=C/C/C(C)=C/Cc1nc(OC)c(OC)c(O)c1C [piericidin A]
- effect on activation-induced CD95L expression (RT-PCR), in words (CD95L [1]; [12]): abolished CD95L transcription almost completely
- effect on activation-induced (TCR- and PMA-induced) ROS generation, in words (Jurkat J16-145 cells [2]): able to inhibit

Compound: COc1cc(C(C)=O)ccc1O [apocynin]
- effect on PMA-induced ROS generation / oxidative signal, in words (Jurkat J16-145 cells [2]; Jurkat J16-145, PMA 30 min): only a moderate effect

Compound: CN(C)CCCn1cc(C2=C(c3c[nH]c4ccccc34)C(=O)NC2=O)c2ccccc21 [BIM, bisindolylmaleimide I]
- effect on activation-induced CD95L expression (RT-PCR), in words (CD95L [1]): dose dependent inhibition of CD95L expression

Compound: CN(C)C(=N)N=C(N)N [metformin]
- inhibition of complex I-induced ROS production (complex I [6]): efficiently inhibit
- effect on AICD, in words (Jurkat J16-145 cells [7]): drastically reduced AICD
- reduction of CD95L expression, quantitative PCR (CD95L [1]; Jurkat J16-145, PMA/ionomycin, 1 h): 50%
- effect on activation-induced CD95L expression (RT-PCR), in words (CD95L [1]; [12]): inhibition of CD95L expression
- reduction of CD95L induction, quantitative PCR (CD95L [1]; Jurkat J16-145, 1 h): up to 80%
- effect on PMA-induced ROS generation / oxidative signal, in words (Jurkat J16-145 cells [2]): diminished oxidative signal
- inhibition of induction of CD95L expression (CD95L [3]; plate-bound anti-CD3 1 h): up to 70%
- expression of cytokines such as IL-2, IL-4, or TNF-alpha (IL-2, IL-4, or TNF-alpha): can be reduced
- effect on activation-induced (anti-CD3) oxidative signal, in words [4]: inhibits the anti-CD3 induced oxidative signal
- apoptosis induced by direct stimulation of the CD95 receptor (CD95 receptor [8]): not affected
- effect on AICD (cell death), in words [9]: nearly completely inhibited
- inhibition of complex I (complex I [10]): mildly inhibits
- apoptosis induced via direct stimulation of the CD95 receptor (CD95 receptor [11]): not affected

Compound: O=C(CC(=O)C(F)(F)F)c1cccs1 [TTFA, 1,1,1-thenoyl trifluoroacetone]
- effect on activation-induced (TCR- and PMA-induced) ROS generation, in words (Jurkat J16-145 cells [2]): no effect or increased the oxidative signal

Compound: c1ccc2c(c1)[I+]c1ccccc1-2 [DPI]
- effect on PMA-induced ROS generation / oxidative signal, in words (Jurkat J16-145 cells [2]; Jurkat J16-145, PMA 30 min): only a moderate effect
